Results taken from ChEMBL document CHEMBL1125926, “Anesthetic steroid mobility in model membrane preparations as examined by high-resolution 1H and 2H NMR spectroscopy” (1991).
Active and inactive are the calls of the source. The rule behind the calls is not given here.

How the values were obtained:
[1] = Compound was evaluated for anesthetic activity (lowest dose producing loss of righting reflex); assay type: functional
[2] = Compound was evaluated for anesthetic activity (lowest dose producing loss of righting reflex); IA=Inactive; assay type: functional

SMILES: CC(=O)C1CC[C@H]2[C@@H]3CC[C@@H]4C[C@@H](O)CCC4(C)[C@H]3CCC12C (some centres not stated)
- Activity [1]: 25 mg/kg

SMILES: CC(=O)C1CC[C@H]2[C@@H]3CC[C@@H]4C[C@H](O)CCC4(C)[C@H]3CCC12C (some centres not stated)
- Activity [1]: 3.1 mg/kg

SMILES: CC(=O)C1CC[C@H]2[C@@H]3CC[C@H]4C[C@@H](O)CCC4(C)[C@H]3CCC12C (some centres not stated)
- Activity [1]: 100 mg/kg

SMILES: CC(=O)[C@H]1CC[C@H]2[C@@H]3CC[C@@H]4C[C@H](O)CC[C@]4(C)[C@H]3C(=O)C[C@]12C [RENANOLONE]
- Activity [1]: 6.3 mg/kg

SMILES: CC(=O)[C@H]1CC[C@H]2[C@@H]3CC[C@H]4C[C@H](O)CC[C@]4(C)[C@H]3C(=O)C[C@]12C [ALFAXALONE]
- Activity [1]: 3.1 mg/kg

SMILES: CC(=O)[C@H]1CC[C@H]2[C@@H]3CC[C@H]4C[C@H](O)CC[C@]4(C)[C@H]3CC[C@]12C [BREXANOLONE]
- Activity [1]: 3.1 mg/kg

SMILES: CC(=O)C1=CCC2C3CC[C@H]4C[C@H](O)CCC4(C)C3C(=O)CC12C (some centres not stated)
- Activity [2]: inactive
